Data: ChEMBL document CHEMBL1201862, “PubChem BioAssay data set” (2004)
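Exposure lasted 48 hours, with cells grown in 96-well plates and compounds tested at five concentrations. Here, GI50 denotes the concentration required for 50% inhibition of growth.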 Activity calls are given as the source filed them. Rule as the data show it: active = GI50 up to about 1.1 µM and inactive = higher.

What was measured:
Test in all cases: inhibition of tumour cell growth, NCI panel, 48 h
[1] = tested on: EKVX
[2] = tested on: HCC 2998
[3] = tested on: HL-60
[4] = tested on: HOP-92
[5] = tested on: MOLT-4
[6] = tested on: Malme-3M
[7] = tested on: NCI-H23
[8] = tested on: NCI-H460
[9] = tested on: OVCAR-5
[10] = tested on: SF-295
[11] = tested on: SK-MEL-28
[12] = tested on: SK-OV-3
[13] = tested on: SNB-75
[14] = tested on: UACC-257
[15] = tested on: OVCAR-8
[16] = tested on: RPMI-8226

Row | Compound | GI50 [1] | GI50 [2] | GI50 [3] | GI50 [4] | GI50 [5] | GI50 [6] | GI50 [7] | GI50 [8] | GI50 [9] | GI50 [10] | GI50 [11] | GI50 [12] | GI50 [13] | GI50 [14] | GI50 [15] | GI50 [16]
1 | CCOC(=O)c1c2ccc(/C=C/c3ccccn3)ccc-2c(C(=O)OCC)c1N | > 100 µM (inactive) | > 100 µM (inactive) | 89.1 µM (inactive) | > 100 µM (inactive) | > 100 µM (inactive) | > 100 µM (inactive) | > 100 µM (inactive) | 89.1 µM (inactive) | > 100 µM (inactive) | > 100 µM (inactive) | 0.361 µM (active) | > 100 µM (inactive) | > 100 µM (inactive) | > 100 µM (inactive) | – | –
2 | CC[P+](C)(C)c1ccccc1 | > 100 µM (inactive) | > 100 µM (inactive) | – | – | > 100 µM (inactive) | > 100 µM (inactive) | > 100 µM (inactive) | > 100 µM (inactive) | > 100 µM (inactive) | > 100 µM (inactive) | > 100 µM (inactive) | > 100 µM (inactive) | > 100 µM (inactive) | > 100 µM (inactive) | > 100 µM (inactive) | > 100 µM (inactive)
3 | O=C(O/N=C1/CCC/C1=C\c1ccccc1)c1ccccc1 | 29.8 µM (inactive) | – | 37.8 µM (inactive) | > 100 µM (inactive) | 27.4 µM (inactive) | > 100 µM (inactive) | > 100 µM (inactive) | > 10 µM (inactive) | > 100 µM (inactive) | > 100 µM (inactive) | > 100 µM (inactive) | > 100 µM (inactive) | 47.5 µM (inactive) | > 100 µM (inactive) | 88.7 µM (inactive) | 50.5 µM (inactive)
4 | CC(C)(Oc1ccc2c(=O)cc(-c3ccc(Cl)cc3)oc2c1)C(=O)Nc1c(Cl)cccc1Cl | > 100 µM (inactive) | – | > 100 µM (inactive) | > 100 µM (inactive) | > 100 µM (inactive) | > 100 µM (inactive) | > 100 µM (inactive) | > 100 µM (inactive) | > 100 µM (inactive) | > 100 µM (inactive) | > 100 µM (inactive) | > 100 µM (inactive) | – | > 100 µM (inactive) | > 100 µM (inactive) | > 100 µM (inactive)
5 | CCC12CCCN(Cc3ccccc3)C1c1c(n(C)c3ccccc13)CC2 (configuration not stated) | > 253 µM (inactive) | 151 µM (inactive) | 106 µM (inactive) | 110 µM (inactive) | 101 µM (inactive) | > 253 µM (inactive) | 111 µM (inactive) | > 253 µM (inactive) | – | 117 µM (inactive) | > 253 µM (inactive) | > 253 µM (inactive) | – | 107 µM (inactive) | > 253 µM (inactive) | 92.7 µM (inactive)
6 | CN(C)C(=S)N=C(Nc1ccccc1)Nc1ccccc1 | > 100 µM (inactive) | > 100 µM (inactive) | > 100 µM (inactive) | > 100 µM (inactive) | > 100 µM (inactive) | > 100 µM (inactive) | > 100 µM (inactive) | > 100 µM (inactive) | > 100 µM (inactive) | > 100 µM (inactive) | > 100 µM (inactive) | > 100 µM (inactive) | 91 µM (inactive) | > 100 µM (inactive) | > 100 µM (inactive) | > 100 µM (inactive)
7 | CC(C)OC(=O)C1=C(O)c2ccccc2S(=O)(=O)N1 | > 100 µM (inactive) | > 100 µM (inactive) | – | – | > 100 µM (inactive) | > 100 µM (inactive) | > 100 µM (inactive) | > 100 µM (inactive) | > 100 µM (inactive) | > 100 µM (inactive) | > 100 µM (inactive) | > 100 µM (inactive) | > 100 µM (inactive) | > 100 µM (inactive) | > 100 µM (inactive) | –
8 | COc1cc([C@@H]2c3cc4c(cc3[C@@H](NCc3ccccc3)C3COC(=O)[C@@H]32)OCO4)cc(OC)c1O (some centres not stated) | 13.1 µM (inactive) | 17.1 µM (inactive) | 2.74 µM (inactive) | 5.83 µM (inactive) | 0.891 µM (active) | 11.2 µM (inactive) | 3.64 µM (inactive) | 0.547 µM (active) | 29 µM (inactive) | 4.03 µM (inactive) | 25 µM (inactive) | 6.52 µM (inactive) | 6.21 µM (inactive) | 27.1 µM (inactive) | 10.8 µM (inactive) | 3.8 µM (inactive)
9 | O=[N+]([O-])c1ccc(Sc2c3ccccc3nc3cc(Cl)ccc23)cc1 | > 10 µM (inactive) | > 10 µM (inactive) | 40.9 µM (inactive) | 65.2 µM (inactive) | 34.4 µM (inactive) | > 10 µM (inactive) | – | > 10 µM (inactive) | > 10 µM (inactive) | > 10 µM (inactive) | > 10 µM (inactive) | > 10 µM (inactive) | 27.9 µM (inactive) | > 10 µM (inactive) | > 10 µM (inactive) | > 100 µM (inactive)
10 | COc1ccc(C(=O)O)c(Cc2cccc3ccccc23)c1 | > 100 µM (inactive) | > 100 µM (inactive) | > 100 µM (inactive) | – | > 100 µM (inactive) | > 100 µM (inactive) | > 100 µM (inactive) | > 100 µM (inactive) | > 100 µM (inactive) | > 100 µM (inactive) | > 100 µM (inactive) | > 100 µM (inactive) | > 100 µM (inactive) | > 100 µM (inactive) | > 100 µM (inactive) | –
11 | CC1/C(=N\O)CC(c2ccccc2)N(C)C1c1ccccc1 (configuration not stated) | > 100 µM (inactive) | > 100 µM (inactive) | > 100 µM (inactive) | > 100 µM (inactive) | > 100 µM (inactive) | 80.9 µM (inactive) | > 100 µM (inactive) | > 100 µM (inactive) | > 100 µM (inactive) | > 100 µM (inactive) | > 100 µM (inactive) | > 100 µM (inactive) | > 100 µM (inactive) | > 100 µM (inactive) | > 100 µM (inactive) | –
12 | CC1=CC(=O)NCCN1C | > 100 µM (inactive) | > 100 µM (inactive) | 45.9 µM (inactive) | > 100 µM (inactive) | > 100 µM (inactive) | > 100 µM (inactive) | > 100 µM (inactive) | > 100 µM (inactive) | > 100 µM (inactive) | > 100 µM (inactive) | > 100 µM (inactive) | > 100 µM (inactive) | > 100 µM (inactive) | > 100 µM (inactive) | > 100 µM (inactive) | –
13 | O=C(NC1C(=O)NNC1c1cccc([N+](=O)[O-])c1)c1ccccc1 (configuration not stated) | > 100 µM (inactive) | > 100 µM (inactive) | 90.8 µM (inactive) | > 100 µM (inactive) | > 100 µM (inactive) | > 100 µM (inactive) | > 100 µM (inactive) | > 100 µM (inactive) | > 100 µM (inactive) | > 100 µM (inactive) | > 100 µM (inactive) | – | > 100 µM (inactive) | > 100 µM (inactive) | > 100 µM (inactive) | > 100 µM (inactive)
14 | CC(=O)N1C/C(=C\c2ccccc2)C(=O)/C(=C/c2ccccc2)C1 | 24 µM (inactive) | 10.9 µM (inactive) | 1.68 µM (inactive) | – | 4.2 µM (inactive) | 18.3 µM (inactive) | 19 µM (inactive) | 17.4 µM (inactive) | 19.4 µM (inactive) | 13.4 µM (inactive) | 13.2 µM (inactive) | 22.5 µM (inactive) | 20 µM (inactive) | 6.9 µM (inactive) | 7.8 µM (inactive) | 0.415 µM (active)
15 | O=C(CC(=O)c1cccc2ccccc12)C(=O)Nc1ccc(Cl)cc1 | > 100 µM (inactive) | > 100 µM (inactive) | > 100 µM (inactive) | 19.6 µM (inactive) | > 100 µM (inactive) | > 100 µM (inactive) | > 100 µM (inactive) | > 100 µM (inactive) | > 100 µM (inactive) | > 100 µM (inactive) | – | > 100 µM (inactive) | – | > 100 µM (inactive) | > 100 µM (inactive) | > 100 µM (inactive)
16 | NC(=O)c1cn(C2OC(CO)C(O)C2O)c(=O)[nH]c1=O (configuration not stated) | > 100 µM (inactive) | – | > 100 µM (inactive) | > 100 µM (inactive) | > 100 µM (inactive) | – | > 100 µM (inactive) | > 100 µM (inactive) | > 100 µM (inactive) | > 100 µM (inactive) | > 100 µM (inactive) | > 100 µM (inactive) | > 100 µM (inactive) | > 100 µM (inactive) | > 100 µM (inactive) | > 100 µM (inactive)
17 | CC(=O)Oc1c2c(c(OC(C)=O)c3c1n(C(C)=O)c1ccccc1n3C(C)=O)n(C(C)=O)c1ccccc1n2C(C)=O | > 10 µM (inactive) | 3.67 µM (inactive) | 2.67 µM (inactive) | – | 2.3 µM (inactive) | 2.38 µM (inactive) | 8.24 µM (inactive) | 3.68 µM (inactive) | – | 8.81 µM (inactive) | 2.89 µM (inactive) | 23.6 µM (inactive) | 11.5 µM (inactive) | 3.42 µM (inactive) | 2.95 µM (inactive) | 2.48 µM (inactive)
18 | COc1cc(C2c3cc4c(cc3C(NCC(O)CO)C3COC(=O)[C@H]23)OCO4)cc(OC)c1OC (some centres not stated) | 0.4 µM (active) | 0.428 µM (active) | 0.0785 µM (active) | – | 0.272 µM (active) | > 100 µM (inactive) | 0.267 µM (active) | 0.435 µM (active) | > 100 µM (inactive) | 0.213 µM (active) | 0.617 µM (active) | 0.422 µM (active) | 0.318 µM (active) | > 100 µM (inactive) | 0.429 µM (active) | 0.321 µM (active)
19 | CO[C@H](C(=O)O[C@H]1C(=O)N2CCC3CCC1C32C)c1ccccc1 (some centres not stated) | > 100 µM (inactive) | > 100 µM (inactive) | > 100 µM (inactive) | – | > 100 µM (inactive) | > 100 µM (inactive) | > 100 µM (inactive) | > 100 µM (inactive) | > 100 µM (inactive) | > 100 µM (inactive) | > 100 µM (inactive) | > 100 µM (inactive) | > 100 µM (inactive) | > 100 µM (inactive) | > 100 µM (inactive) | > 100 µM (inactive)
